The kinase profiling compilation of Christmann-Franck et al. (2016)
pKd: −log10 of the molar value.

Assays:
Assay in all cases: KINOMEscan competition binding
SIK1 (human) = SIK1 (human) (UniProt P57059); conditions: compound 1.0 µM
CHEK2 (human) = CHEK2 (human) (UniProt O96017); conditions: compound 1.0 µM
LCK (human) = LCK (human) (UniProt P06239); conditions: compound 1.0 µM
MKNK2 (human) = MKNK2 (human) (UniProt Q9HBH9); conditions: compound 1.0 µM
[1] = tested on: KIT (human), P10721 [D816V]; conditions: compound 1.0 µM
YSK4 (human) = YSK4 (human) (UniProt Q56UN5); conditions: compound 1.0 µM
MAPK9 (human) = MAPK9 (human) (UniProt P45984); conditions: compound 1.0 µM
PAK2 (human) = PAK2 (human) (UniProt Q13177); conditions: compound 1.0 µM
DDR2 (human) = DDR2 (human) (UniProt Q16832); conditions: compound 1.0 µM
MAP3K5 (human) = MAP3K5 (human) (UniProt Q99683); conditions: compound 1.0 µM
PIK3C2G (human) = PIK3C2G (human) (UniProt O75747); conditions: compound 1.0 µM
SGK110 (human) = SGK110 (human) (UniProt P0C264); conditions: compound 1.0 µM
PI4KB (human) = PI4KB (human) (UniProt Q9UBF8); conditions: compound 1.0 µM
[2] = tested on: EGFR (human), P00533 [L858R]; conditions: compound 1.0 µM
MAST1 (human) = MAST1 (human) (UniProt Q9Y2H9); conditions: compound 1.0 µM
BMPR2 (human) = BMPR2 (human) (UniProt Q13873); conditions: compound 1.0 µM
LIMK1 (human) = LIMK1 (human) (UniProt P53667); conditions: compound 1.0 µM
PTK6 (human) = PTK6 (human) (UniProt Q13882); conditions: compound 1.0 µM
STK17A (human) = STK17A (human) (UniProt Q9UEE5); conditions: compound 1.0 µM
CDC2L2 (human) = CDC2L2 (human) (UniProt Q9UQ88); conditions: compound 1.0 µM
MATK (human) = MATK (human) (UniProt P42679); conditions: compound 1.0 µM
CAMK2A (human) = CAMK2A (human) (UniProt Q9UQM7); conditions: compound 1.0 µM
TESK1 (human) = TESK1 (human) (UniProt Q15569); conditions: compound 1.0 µM
MLTK (human) = MLTK (human) (UniProt Q9NYL2); conditions: compound 1.0 µM
RPS6KA3 KD1 (human) = RPS6KA3 KD1 (human) (UniProt P51812); conditions: compound 1.0 µM
[3] = molecular target: JAK3 JH1 catalytic (human) (UniProt P52333); conditions: compound 1.0 µM
[4] = tested on: KIT (human), P10721 [A829P]; conditions: compound 1.0 µM
TNNI3K (human) = TNNI3K (human) (UniProt Q59H18); conditions: compound 1.0 µM
ROCK1 (human) = ROCK1 (human) (UniProt Q13464); conditions: compound 1.0 µM
STK24 (human) = STK24 (human) (UniProt Q9Y6E0); conditions: compound 1.0 µM
SRC (human) = SRC (human) (UniProt P12931); conditions: compound 1.0 µM
MAP4K3 (human) = MAP4K3 (human) (UniProt Q8IVH8); conditions: compound 1.0 µM
MYO3A (human) = MYO3A (human) (UniProt Q8NEV4); conditions: compound 1.0 µM
NTRK2 (human) = NTRK2 (human) (UniProt Q16620); conditions: compound 1.0 µM
[5] = tested on: ABL1 (human), P00519 [M351T]; conditions: compound 1.0 µM
PTK2 (human) = PTK2 (human) (UniProt Q05397); conditions: compound 1.0 µM
MAK (human) = MAK (human) (UniProt P20794); conditions: compound 1.0 µM
IRAK4 (human) = IRAK4 (human) (UniProt Q9NWZ3); conditions: compound 1.0 µM
CDK19 (human) = CDK19 (human) (UniProt Q9BWU1); conditions: compound 1.0 µM
[6] = tested on: LRRK2 (human), Q5S007 [G2019S]; conditions: compound 1.0 µM
DMPK (human) = DMPK (human) (UniProt Q09013); conditions: compound 1.0 µM
HIPK2 (human) = HIPK2 (human) (UniProt Q9H2X6); conditions: compound 1.0 µM
ERBB2 (human) = ERBB2 (human) (UniProt P04626); conditions: for kinase still bound, per cent of control: compound 1.0 µM

Sequence of MLTK (human) (Q9NYL2 whole entry, looked up): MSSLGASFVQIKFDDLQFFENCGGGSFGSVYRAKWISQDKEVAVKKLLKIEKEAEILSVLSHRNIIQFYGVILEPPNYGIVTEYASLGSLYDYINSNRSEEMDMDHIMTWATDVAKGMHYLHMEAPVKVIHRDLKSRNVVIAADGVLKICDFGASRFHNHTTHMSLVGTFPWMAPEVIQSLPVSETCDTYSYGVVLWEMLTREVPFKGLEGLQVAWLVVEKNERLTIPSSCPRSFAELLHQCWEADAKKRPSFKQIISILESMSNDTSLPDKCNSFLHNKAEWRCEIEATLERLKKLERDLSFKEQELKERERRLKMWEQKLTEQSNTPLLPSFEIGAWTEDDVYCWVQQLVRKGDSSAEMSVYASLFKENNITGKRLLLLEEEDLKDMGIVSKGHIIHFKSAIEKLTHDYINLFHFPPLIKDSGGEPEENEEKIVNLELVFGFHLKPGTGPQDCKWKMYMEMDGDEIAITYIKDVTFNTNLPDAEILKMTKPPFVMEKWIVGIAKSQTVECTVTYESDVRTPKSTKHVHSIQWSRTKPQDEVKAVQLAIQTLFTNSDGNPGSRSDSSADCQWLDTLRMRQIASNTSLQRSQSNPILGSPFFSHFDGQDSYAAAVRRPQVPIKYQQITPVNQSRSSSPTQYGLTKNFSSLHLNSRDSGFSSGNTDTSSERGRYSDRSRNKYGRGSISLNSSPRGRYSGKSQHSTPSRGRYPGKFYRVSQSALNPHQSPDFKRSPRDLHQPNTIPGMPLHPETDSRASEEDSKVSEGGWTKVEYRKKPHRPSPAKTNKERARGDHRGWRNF
Sequence of IRAK4 (human) (Q9NWZ3 whole entry, looked up): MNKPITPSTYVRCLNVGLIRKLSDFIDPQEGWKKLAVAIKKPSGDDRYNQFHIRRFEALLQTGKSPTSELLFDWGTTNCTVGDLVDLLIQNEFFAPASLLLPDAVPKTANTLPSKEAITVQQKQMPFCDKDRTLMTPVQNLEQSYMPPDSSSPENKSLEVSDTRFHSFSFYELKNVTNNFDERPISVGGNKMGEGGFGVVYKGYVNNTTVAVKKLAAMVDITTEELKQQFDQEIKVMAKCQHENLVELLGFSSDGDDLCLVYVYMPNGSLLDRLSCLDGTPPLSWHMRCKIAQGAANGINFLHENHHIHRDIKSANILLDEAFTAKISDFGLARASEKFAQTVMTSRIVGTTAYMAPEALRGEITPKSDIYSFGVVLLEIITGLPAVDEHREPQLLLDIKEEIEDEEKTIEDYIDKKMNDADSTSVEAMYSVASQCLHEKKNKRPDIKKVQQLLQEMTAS
Sequence of PTK2 (human) (Q05397 whole entry, looked up): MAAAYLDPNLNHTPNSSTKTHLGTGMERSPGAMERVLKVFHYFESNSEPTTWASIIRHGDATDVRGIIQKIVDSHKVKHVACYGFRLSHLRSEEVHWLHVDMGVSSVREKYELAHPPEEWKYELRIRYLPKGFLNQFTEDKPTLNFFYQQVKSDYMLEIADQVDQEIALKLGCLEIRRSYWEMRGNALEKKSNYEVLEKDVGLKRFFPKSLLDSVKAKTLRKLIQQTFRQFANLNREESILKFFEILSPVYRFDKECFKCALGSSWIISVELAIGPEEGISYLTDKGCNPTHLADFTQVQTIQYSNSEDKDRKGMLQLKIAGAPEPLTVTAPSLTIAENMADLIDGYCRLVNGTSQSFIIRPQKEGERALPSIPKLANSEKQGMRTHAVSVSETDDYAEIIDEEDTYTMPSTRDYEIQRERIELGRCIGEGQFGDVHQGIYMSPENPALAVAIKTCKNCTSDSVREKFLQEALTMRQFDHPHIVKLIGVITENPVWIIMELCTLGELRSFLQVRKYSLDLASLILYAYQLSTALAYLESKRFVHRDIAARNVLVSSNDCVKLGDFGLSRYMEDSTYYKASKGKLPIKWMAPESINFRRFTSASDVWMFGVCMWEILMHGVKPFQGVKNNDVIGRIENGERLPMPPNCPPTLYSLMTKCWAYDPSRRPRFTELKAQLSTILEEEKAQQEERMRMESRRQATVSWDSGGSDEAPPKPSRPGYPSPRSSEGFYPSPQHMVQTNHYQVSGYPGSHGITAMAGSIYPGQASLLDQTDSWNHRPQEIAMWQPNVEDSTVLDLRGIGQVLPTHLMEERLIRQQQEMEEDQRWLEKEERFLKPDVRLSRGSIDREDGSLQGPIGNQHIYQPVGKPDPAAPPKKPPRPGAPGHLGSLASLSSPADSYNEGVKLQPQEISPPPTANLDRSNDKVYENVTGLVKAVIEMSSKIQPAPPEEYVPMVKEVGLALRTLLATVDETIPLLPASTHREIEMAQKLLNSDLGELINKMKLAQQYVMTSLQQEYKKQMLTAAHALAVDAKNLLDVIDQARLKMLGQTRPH
Sequence of MKNK2 (human) (Q9HBH9 whole entry, looked up): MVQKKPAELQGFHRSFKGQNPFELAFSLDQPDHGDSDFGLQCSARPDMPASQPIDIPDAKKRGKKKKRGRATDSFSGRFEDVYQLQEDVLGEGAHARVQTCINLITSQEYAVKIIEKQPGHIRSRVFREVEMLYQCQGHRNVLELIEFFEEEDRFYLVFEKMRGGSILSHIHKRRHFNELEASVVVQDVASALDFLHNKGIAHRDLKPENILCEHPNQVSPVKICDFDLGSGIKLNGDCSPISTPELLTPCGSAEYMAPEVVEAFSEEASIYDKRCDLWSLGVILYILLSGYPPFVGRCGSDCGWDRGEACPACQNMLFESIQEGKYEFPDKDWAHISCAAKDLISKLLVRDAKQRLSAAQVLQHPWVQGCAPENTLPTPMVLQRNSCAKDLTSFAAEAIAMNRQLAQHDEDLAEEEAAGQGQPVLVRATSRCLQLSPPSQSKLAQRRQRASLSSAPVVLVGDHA
Sequence of SIK1 (human) (P57059 whole entry, looked up): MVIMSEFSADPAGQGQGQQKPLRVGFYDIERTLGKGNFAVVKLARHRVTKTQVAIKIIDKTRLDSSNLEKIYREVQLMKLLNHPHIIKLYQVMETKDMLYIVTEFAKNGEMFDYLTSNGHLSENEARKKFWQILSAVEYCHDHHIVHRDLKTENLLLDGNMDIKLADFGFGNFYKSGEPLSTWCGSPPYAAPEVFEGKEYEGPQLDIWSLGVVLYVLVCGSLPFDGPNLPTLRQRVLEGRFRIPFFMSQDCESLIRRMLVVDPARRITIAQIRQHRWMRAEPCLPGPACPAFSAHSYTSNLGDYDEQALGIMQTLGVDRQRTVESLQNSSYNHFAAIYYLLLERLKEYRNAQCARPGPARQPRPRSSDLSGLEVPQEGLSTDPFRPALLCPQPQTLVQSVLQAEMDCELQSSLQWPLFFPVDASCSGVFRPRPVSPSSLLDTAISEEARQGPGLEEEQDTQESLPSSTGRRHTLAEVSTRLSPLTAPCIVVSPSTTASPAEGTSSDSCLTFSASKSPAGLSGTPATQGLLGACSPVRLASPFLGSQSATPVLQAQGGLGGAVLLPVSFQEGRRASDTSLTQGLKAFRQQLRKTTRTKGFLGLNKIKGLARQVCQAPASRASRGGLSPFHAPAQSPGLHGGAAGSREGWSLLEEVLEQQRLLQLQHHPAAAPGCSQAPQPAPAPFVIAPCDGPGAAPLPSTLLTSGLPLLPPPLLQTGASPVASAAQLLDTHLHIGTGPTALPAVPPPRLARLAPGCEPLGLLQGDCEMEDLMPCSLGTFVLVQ
Sequence of MAP3K5 (human) (Q99683 whole entry, looked up): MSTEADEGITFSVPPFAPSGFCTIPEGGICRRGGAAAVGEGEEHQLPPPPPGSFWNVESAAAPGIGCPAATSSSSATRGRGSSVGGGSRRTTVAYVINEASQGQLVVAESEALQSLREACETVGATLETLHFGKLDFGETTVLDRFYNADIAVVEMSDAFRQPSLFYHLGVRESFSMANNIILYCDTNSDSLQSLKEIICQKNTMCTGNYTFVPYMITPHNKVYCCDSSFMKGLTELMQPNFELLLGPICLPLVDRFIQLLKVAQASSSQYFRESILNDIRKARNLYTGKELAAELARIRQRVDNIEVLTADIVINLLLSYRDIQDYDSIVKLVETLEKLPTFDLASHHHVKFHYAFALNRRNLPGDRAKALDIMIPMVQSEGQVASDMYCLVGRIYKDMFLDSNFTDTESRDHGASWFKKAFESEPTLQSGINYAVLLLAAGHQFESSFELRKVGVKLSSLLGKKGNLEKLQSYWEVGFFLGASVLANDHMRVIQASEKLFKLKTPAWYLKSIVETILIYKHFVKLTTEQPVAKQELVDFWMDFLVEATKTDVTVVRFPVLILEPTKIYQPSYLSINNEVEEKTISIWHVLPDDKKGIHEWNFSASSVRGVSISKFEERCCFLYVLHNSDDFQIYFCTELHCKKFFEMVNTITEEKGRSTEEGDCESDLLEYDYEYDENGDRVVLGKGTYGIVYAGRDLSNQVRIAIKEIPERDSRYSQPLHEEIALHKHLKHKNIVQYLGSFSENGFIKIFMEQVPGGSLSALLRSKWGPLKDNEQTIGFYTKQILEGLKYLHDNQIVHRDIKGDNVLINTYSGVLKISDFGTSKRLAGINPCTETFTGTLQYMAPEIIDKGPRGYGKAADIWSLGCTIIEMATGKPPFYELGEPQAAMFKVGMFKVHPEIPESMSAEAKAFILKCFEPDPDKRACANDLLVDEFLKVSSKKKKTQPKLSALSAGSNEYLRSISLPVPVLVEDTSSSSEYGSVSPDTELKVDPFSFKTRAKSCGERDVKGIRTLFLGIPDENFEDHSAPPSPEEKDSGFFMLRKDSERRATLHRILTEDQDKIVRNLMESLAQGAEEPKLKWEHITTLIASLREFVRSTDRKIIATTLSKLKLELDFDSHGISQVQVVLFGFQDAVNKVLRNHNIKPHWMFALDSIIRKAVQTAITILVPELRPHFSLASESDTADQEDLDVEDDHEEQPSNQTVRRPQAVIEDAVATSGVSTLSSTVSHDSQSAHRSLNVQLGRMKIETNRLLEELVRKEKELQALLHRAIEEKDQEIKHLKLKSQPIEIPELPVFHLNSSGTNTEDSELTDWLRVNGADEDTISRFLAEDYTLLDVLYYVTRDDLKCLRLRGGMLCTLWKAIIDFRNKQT

## CN(C)C/C=C/C(=O)Nc1cccc(C(=O)Nc2ccc(Nc3nccc(-c4c(-c5ccccc5)nn5ccccc45)n3)cc2)c1
SIK1 (human)
  kinase still bound, per cent of control: 29%
CHEK2 (human)
  kinase still bound, per cent of control: 100%
LCK (human)
  kinase still bound, per cent of control: 8.6%
MKNK2 (human)
  kinase still bound, per cent of control: 100%
[1]
  kinase still bound, per cent of control: 33%
YSK4 (human)
  kinase still bound, per cent of control: 62%
MAPK9 (human)
  kinase still bound, per cent of control: 0%
PAK2 (human)
  kinase still bound, per cent of control: 88%
DDR2 (human)
  kinase still bound, per cent of control: 9%
MAP3K5 (human)
  kinase still bound, per cent of control: 100%
PIK3C2G (human)
  kinase still bound, per cent of control: 100%
SGK110 (human)
  kinase still bound, per cent of control: 100%
PI4KB (human)
  kinase still bound, per cent of control: 69%
[2]
  kinase still bound, per cent of control: 0.8%
MAST1 (human)
  kinase still bound, per cent of control: 99%
BMPR2 (human)
  kinase still bound, per cent of control: 100%
LIMK1 (human)
  kinase still bound, per cent of control: 100%
PTK6 (human)
  kinase still bound, per cent of control: 82%
STK17A (human)
  kinase still bound, per cent of control: 93%
CDC2L2 (human)
  kinase still bound, per cent of control: 32%
MATK (human)
  kinase still bound, per cent of control: 100%
CAMK2A (human)
  kinase still bound, per cent of control: 100%
TESK1 (human)
  kinase still bound, per cent of control: 99%
MLTK (human)
  kinase still bound, per cent of control: 11%
RPS6KA3 KD1 (human)
  kinase still bound, per cent of control: 50%
[3]
  kinase still bound, per cent of control: 49%
[4]
  kinase still bound, per cent of control: 71%
TNNI3K (human)
  kinase still bound, per cent of control: 100%
ROCK1 (human)
  kinase still bound, per cent of control: 59%
STK24 (human)
  kinase still bound, per cent of control: 88%
SRC (human)
  kinase still bound, per cent of control: 18%
MAP4K3 (human)
  kinase still bound, per cent of control: 59%
MYO3A (human)
  kinase still bound, per cent of control: 100%
NTRK2 (human)
  kinase still bound, per cent of control: 14%
[5]
  kinase still bound, per cent of control: 14%
PTK2 (human)
  kinase still bound, per cent of control: 95%
MAK (human)
  kinase still bound, per cent of control: 100%
IRAK4 (human)
  kinase still bound, per cent of control: 84%
CDK19 (human)
  kinase still bound, per cent of control: 100%
[6]
  kinase still bound, per cent of control: 100%
DMPK (human)
  kinase still bound, per cent of control: 59%
HIPK2 (human)
  kinase still bound, per cent of control: 97%
ERBB2 (human)
  pKd: 6.64
  kinase still bound, per cent of control: 0.4%

## CN(C)C/C=C/C(=O)Nc1cccc(C(=O)Nc2ccc(Nc3nccc(/C(C#N)=C4\Nc5ccccc5S4)n3)cc2)c1
SIK1 (human)
  kinase still bound, per cent of control: 100%
CHEK2 (human)
  kinase still bound, per cent of control: 100%
LCK (human)
  kinase still bound, per cent of control: 100%
MKNK2 (human)
  kinase still bound, per cent of control: 68%
[1]
  kinase still bound, per cent of control: 41%
YSK4 (human)
  kinase still bound, per cent of control: 59%
MAPK9 (human)
  kinase still bound, per cent of control: 0.05%
PAK2 (human)
  kinase still bound, per cent of control: 100%
DDR2 (human)
  kinase still bound, per cent of control: 100%
MAP3K5 (human)
  kinase still bound, per cent of control: 100%
PIK3C2G (human)
  kinase still bound, per cent of control: 100%
SGK110 (human)
  kinase still bound, per cent of control: 100%
PI4KB (human)
  kinase still bound, per cent of control: 65%
[2]
  kinase still bound, per cent of control: 96%
MAST1 (human)
  kinase still bound, per cent of control: 100%
BMPR2 (human)
  kinase still bound, per cent of control: 50%
LIMK1 (human)
  kinase still bound, per cent of control: 100%
PTK6 (human)
  kinase still bound, per cent of control: 100%
STK17A (human)
  kinase still bound, per cent of control: 100%
CDC2L2 (human)
  kinase still bound, per cent of control: 39%
MATK (human)
  kinase still bound, per cent of control: 100%
CAMK2A (human)
  kinase still bound, per cent of control: 100%
TESK1 (human)
  kinase still bound, per cent of control: 100%
MLTK (human)
  kinase still bound, per cent of control: 98%
RPS6KA3 KD1 (human)
  kinase still bound, per cent of control: 87%
[3]
  kinase still bound, per cent of control: 83%
[4]
  kinase still bound, per cent of control: 100%
TNNI3K (human)
  kinase still bound, per cent of control: 100%
ROCK1 (human)
  kinase still bound, per cent of control: 100%
STK24 (human)
  kinase still bound, per cent of control: 100%
SRC (human)
  kinase still bound, per cent of control: 100%
MAP4K3 (human)
  kinase still bound, per cent of control: 91%
MYO3A (human)
  kinase still bound, per cent of control: 100%
NTRK2 (human)
  kinase still bound, per cent of control: 100%
[5]
  kinase still bound, per cent of control: 69%
PTK2 (human)
  kinase still bound, per cent of control: 100%
MAK (human)
  kinase still bound, per cent of control: 93%
IRAK4 (human)
  kinase still bound, per cent of control: 71%
CDK19 (human)
  kinase still bound, per cent of control: 93%
[6]
  kinase still bound, per cent of control: 100%
DMPK (human)
  kinase still bound, per cent of control: 78%
HIPK2 (human)
  kinase still bound, per cent of control: 60%
ERBB2 (human)
  kinase still bound, per cent of control: 100%

## Cc1cc(NC(=O)c2cccc(NC(=O)/C=C/CN(C)C)c2)ccc1Nc1nccc(-c2cccnc2)n1
SIK1 (human)
  kinase still bound, per cent of control: 100%
CHEK2 (human)
  kinase still bound, per cent of control: 95%
LCK (human)
  kinase still bound, per cent of control: 100%
MKNK2 (human)
  kinase still bound, per cent of control: 6.8%
[1]
  kinase still bound, per cent of control: 54%
YSK4 (human)
  kinase still bound, per cent of control: 65%
MAPK9 (human)
  kinase still bound, per cent of control: 0%
PAK2 (human)
  kinase still bound, per cent of control: 100%
DDR2 (human)
  kinase still bound, per cent of control: 89%
MAP3K5 (human)
  kinase still bound, per cent of control: 100%
PIK3C2G (human)
  kinase still bound, per cent of control: 81%
SGK110 (human)
  kinase still bound, per cent of control: 95%
PI4KB (human)
  kinase still bound, per cent of control: 82%
[2]
  kinase still bound, per cent of control: 100%
MAST1 (human)
  kinase still bound, per cent of control: 97%
BMPR2 (human)
  kinase still bound, per cent of control: 77%
LIMK1 (human)
  kinase still bound, per cent of control: 74%
PTK6 (human)
  kinase still bound, per cent of control: 100%
STK17A (human)
  kinase still bound, per cent of control: 24%
CDC2L2 (human)
  kinase still bound, per cent of control: 98%
MATK (human)
  kinase still bound, per cent of control: 81%
CAMK2A (human)
  kinase still bound, per cent of control: 100%
TESK1 (human)
  kinase still bound, per cent of control: 100%
MLTK (human)
  kinase still bound, per cent of control: 100%
RPS6KA3 KD1 (human)
  kinase still bound, per cent of control: 100%
[3]
  kinase still bound, per cent of control: 87%
[4]
  kinase still bound, per cent of control: 69%
TNNI3K (human)
  kinase still bound, per cent of control: 100%
ROCK1 (human)
  kinase still bound, per cent of control: 63%
STK24 (human)
  kinase still bound, per cent of control: 79%
SRC (human)
  kinase still bound, per cent of control: 87%
MAP4K3 (human)
  kinase still bound, per cent of control: 100%
MYO3A (human)
  kinase still bound, per cent of control: 81%
NTRK2 (human)
  kinase still bound, per cent of control: 96%
[5]
  kinase still bound, per cent of control: 81%
PTK2 (human)
  kinase still bound, per cent of control: 11%
MAK (human)
  kinase still bound, per cent of control: 100%
IRAK4 (human)
  kinase still bound, per cent of control: 93%
CDK19 (human)
  kinase still bound, per cent of control: 62%
[6]
  kinase still bound, per cent of control: 67%
DMPK (human)
  kinase still bound, per cent of control: 63%
HIPK2 (human)
  kinase still bound, per cent of control: 71%
ERBB2 (human)
  kinase still bound, per cent of control: 82%
